The values below come from US20250114369A1, “COMPOUNDS AND METHODS FOR TREATMENT OF VIRAL INFECTIONS” (Gilead Sciences, Inc., priority 2023, published 2025).

The structures appear in SMILES notation. pEC50: −log10 of the molar value.

The nature of data set [1]: in vitro. Type of data set: in vitro ADME. The conditions noted are these: human, s9, pH 7.4. On the procedure:
Duplicate aliquots of test compound or positive control substrate (GS-7340) were added to PMSF-free Intestinal S9 fractions diluted with 100 mM phosphate buffered saline, pH 7.4, to obtain a protein concentration of 1.0 mg/mL. The S9 metabolic reactions were initiated by the addition of the substrates to the S9 reaction mixture to a final concentration of 2 μM. At 0, 10, 20, 30, 60 and 120 min, 25 μL aliquots of the reaction mixture were transferred to plates containing 225 μl of IS/Q solution. After quenching, the plates were centrifuged at 3000×g for 30 minutes, and 150 μL aliquots of each supernatant were diluted with 150 μL water. Aliquots (10 μL) of the diluted supernatant were analyzed on a Thermo Q-Exactive mass spectrometer as described below. Quantification of test compounds and controls was performed by analyte/internal standard peak area ratio (PAR) values measured on a Thermo Q-Exactive mass spectrometer coupled to a Dionex UltiMate 3000 HPLC with a Leap Technologies HTC PAL autosampler. The column used was a Thermo Hypersil GOLD (1.9 μm particle size, 2.1×50 mm). Mobile phase A consisted of […] formic acid in water. Mobile phase B consisted of 0.1% (v/v) formic acid in acetonitrile. Elution of analytes was achieved by a series of linear gradients of acetonitrile in water containing 0.1% (v/v) formic acid. The mass spectrometer was calibrated on a weekly basis and mass tolerance of 5 ppm was used.

The nature of data set [2]: in vitro. It is filed as in vitro ADME. The conditions noted are these: human, s9, pH 7.4. On the procedure:
Duplicate aliquots of test compound or positive control substrate (GS-7340) were added to S9 stock diluted with 100 mM potassium phosphate buffer, pH 7.4, to obtain a protein concentration of 2.4 mg/mL. The S9 metabolic reactions were initiated by the addition of the substrates to the S9 reaction mixture to a final concentration of 2 μM. At 2, 12, 25, 45, 65 and 90 min, 25 μL aliquots of the reaction mixture were transferred to plates containing 225 μl of IS/Q solution. After quenching, the plates were centrifuged at 3000×g for 30 minutes, and 150 μL aliquots of each supernatant were diluted with 150 μL water. Aliquots (10 μL) of the diluted supernatant were analyzed on a Thermo Q-Exactive mass spectrometer as described below. Quantification of test compounds and controls was performed by analyte/internal standard peak area ratio (PAR) values measured on a Thermo Q-Exactive mass spectrometer coupled to a Dionex UltiMate 3000 HPLC with a Leap Technologies HTC PAL autosampler. The column used was a Thermo Hypersil GOLD (1.9 μm particle size, 2.1×50 mm). Mobile phase A consisted of […] formic acid in water. Mobile phase B consisted of 0.1% (v/v) formic acid in acetonitrile. Elution of analytes was achieved by a series of linear gradients of acetonitrile in water containing 0.1% (v/v) formic acid. The mass spectrometer was calibrated on a weekly basis and mass tolerance of 5 ppm was used.
This is another data set of the same source.

Data set [3] has as its system Respiratory syncytial virus recombinant with luciferase (RSV-Luc5). As to the kind of experiment: microbe, parasite or virus in culture. The conditions noted are these: human respiratory syncytial virus, NHBE, 72 h, read-out: RSV NHBE EC50 (nM). It is filed as cell-based.
The test system of data set [4] is SARS Coronavirus 2 recombinant with NanoLuc (SARS-CoV2-NLuc). Put plainly: organism not typed. It is filed as cell-based. The conditions noted are these: 48 h.
Data set [5] can be described thus: in vitro. It is filed as cell-based. Particulars: human. How it is done: Cytotoxicity of the compounds was determined in uninfected cells using the cell viability reagent in a similar fashion as described before for other cell types (Cihlar et al., Antimicrob Agents Chemother. 2008, 52(2):655-65). HEp-2 (1.5×10^3 cells/well) and MT-4 (2×10^3 cells/well) cells were plated in 384-well plates and incubated with the appropriate medium containing 3-fold serially diluted compound ranging from 15 nM to 100,000 nM. Cells were cultured for 4-5 days at 37° C. Following the incubation, the cells were allowed to equilibrate to 25° C., and cell viability was determined by adding Cell-Titer Glo viability reagent. The mixture was incubated for 10 min, and the luminescence signal was quantified using an Envision plate reader. Untreated cell and cells treated at 2 μM puromycin (Sigma, St. Louis, MO) serve as […] cell viability control, respectively. The percent of cell viability was calculated for each tested compound concentration relative to the 0% and 100% controls and the CC50 value was determined by non-linear regression as a compound concentration reducing the cell viability by […].

The format of data set [6] is in vitro ADME. Particulars: 2 μM. On the procedure:
Duplicate aliquots of plasma were warmed to 37° C. and the metabolic reactions initiated by the addition of test compound (6 μL of 0.1 mM DMSO stock) or plasma stability standard (GS-7340) to obtain a final substrate concentration of 2 μM. At 0.05, 0.5, 1, 2, 3 and 4 hr, 25 μL aliquots of the reaction mixture were transferred to plates containing 225 μl of IS/Q quenching solution. After quenching, the plates were centrifuged at 3000×g for 30 minutes, and 150 μL supernatant was diluted with 150 μL water. Aliquots (10 μL) of the diluted supernatant were analyzed on a Thermo Q-Exactive mass spectrometer as described below. Quantification of test compounds and controls was performed by analyte/internal standard peak area ratio (PAR) values measured on a Thermo Q-Exactive mass spectrometer coupled to a Dionex UltiMate 3000 HPLC with a Leap Technologies HTC PAL autosampler. The column used was a Thermo Hypersil GOLD (1.9 μm particle size, 2.1×50 mm). Mobile phase A consisted of […] formic acid in water. Mobile phase B consisted of 0.1% (v/v) formic acid in acetonitrile. Elution of analytes was achieved by a series of linear gradients of acetonitrile in water containing 0.1% (v/v) formic acid. The mass spectrometer was calibrated on a weekly basis and mass tolerance of 5 ppm was used.

For data set [7], the system named is Caco-2 cells (clone C2BBel). As to the kind of experiment: CACO-2 permeability. Particulars: donor pH 6.5, receiver pH 7.4; for DM Caco2 A to B: forward (A to B); for DM Caco2 B to A: reverse (B to A). It is filed as in vitro ADME. How it is done: Pre-plated Caco-2 cells (clone C2BBel) were obtained from Sigma-Aldrich, Inc. (Atlanta, GA). Cell monolayers were grown to confluence on collagen-coated, microporous, polycarbonate membranes in 24-well transwell plates for 21 days. The permeability assay buffer in donor wells was Hanks' balanced salt solution (HBSS) containing 10 mM HEPES and 15 mM glucose at a pH of 6.5 containing 200 μM BNPP. The receiver wells used HBSS buffer containing 10 mM HEPES and 15 mM glucose at a pH of 7.4 and supplemented with 1% BSA. After an initial equilibration with transport buffer, TEER values were read to test membrane integrity. The experiment was started by the addition of buffers containing test compounds, 200 μl and 1000 μl in the apical and basolateral chamber, respectively. At 0- and 2-hour post dose, 10 μL was sampled from donor compartment and was immediately diluted in 190 μL of 20% methanol. At 1 and 2 hours post dose, 100 μl of solution was taken from the receiver compartments and was immediately diluted in 100 μl of 20% methanol. Removed buffer was replaced with fresh buffer and a correction was applied to all calculations for the removed material. Each compound was tested in 2 separate replicate wells for each condition. All samples were then extracted with 400 μl 100% acetonitrile with internal standard to precipitate protein. Cells were dosed on the apical or basolateral side to determine forward (A to B) and reverse (B to A) permeability. To test for non-specific binding and compound instability, the total amount of drug was quantitated at the end of the experiment and compared to the material present in the original dosing solution as a percent recovery. Formation of the parent compound (GS-441524; Reference Compound A) was monitored in assay wells dosed with the prodrug. Samples were analyzed by LC-MS/MS.
In general terms: Caco-2 monolayers are a common model of the intestinal barrier.
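For CC50 in this document: uninfected MT-4 cells over 4-5 days by CellTiter-Glo.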

Turning to `N#C[C@@]1(c2ccc3c(N)ncnn23)O[C@H](COC(=O)SC2CCCC2)[C@@H](O)[C@H]1O` [Compound 16, [(2R,3S,4R,5R)-5-(4-aminopyrrolo[2,1-f][1,2,4]triazin-7-yl)-5-cyano-3,4-dihydroxy-tetrahydrofuran-2-yl]methyl cyclopentylsulfanylformate], the half-life at 2 μM came out at 3.4 min in “in vitro [1]” and 6.2 min in the data set “in vitro [2]”. In addition, in data set [3], the half-maximal effective concentration (EC50) came to 2810 nM. Besides, the pEC50 in data set [4] is 5.06. The midpoint of cytotoxicity in “in vitro [5]”, the CC50, lay at 49.9 µM.
`CC(=O)O[C@H]1[C@@H](OC(C)=O)[C@](C#N)(c2ccc3c(N)ncnn23)O[C@@H]1COC(=O)SC1CCCC1` [Compound 25, [(2R,3R,4R,5R)-4-acetoxy-5-(4-aminopyrrolo[2,1-f][1,2,4]triazin-7-yl)-5-cyano-2-(cyclopentylsulfanylcarbonyloxymethyl)tetrahydrofuran-3-yl]acetate]: the “STA Human Plasma 37” value in data set [6] came to 72.169. Moreover, the values for the half-life at 2 μM in “in vitro [1]” and in “in vitro [2]” were 1.14 min and ≤ 2 min, respectively. For the same compound, in data set [3], the EC50 was found to be 1250 nM. For the same compound, the pEC50 in data set [4] was 5.40. Moreover, the CC50 in the data set “in vitro [5]” worked out at 32.5 µM.
As to `CCCSC(=O)OC[C@H]1O[C@@](C#N)(c2ccc3c(N)ncnn23)[C@H](OC(C)=O)[C@@H]1OC(C)=O` [Compound 22, [(2R,3R,4R,5R)-4-acetoxy-5-(4-aminopyrrolo[2,1-f][1,2,4]triazin-7-yl)-5-cyano-2-(propylsulfanylcarbonyloxymethyl)tetrahydrofuran-3-yl]acetate], the results for the half-life at 2 μM in the data set “in vitro [1]” and in the data set “in vitro [2]” were 1.59 min and ≤ 2 min, respectively. In data set [3], the half-maximal effective concentration (EC50) was found to be 3320 nM. In addition, the negative-log EC50 (pEC50) in data set [4] was 5.01. For the same compound, the CC50 in the data set “in vitro [5]” is > 50 µM.
The matching figures for `CCSC(=O)OC[C@H]1O[C@@](C#N)(c2ccc3c(N)ncnn23)[C@H](OC(C)=O)[C@@H]1OC(C)=O` [Compound 23, [(2R,3R,4R,5R)-4-acetoxy-5-(4-aminopyrrolo[2,1-f][1,2,4]triazin-7-yl)-5-cyano-2-(ethylsulfanylcarbonyloxymethyl)tetrahydrofuran-3-yl]acetate]: 0.885 min, ≤ 2 min, 3810 nM, 4.91 and > 50 µM.
With `N#C[C@@]1(c2ccc3c(N)ncnn23)O[C@H](COC(=O)N2CCCCCCC2)[C@@H](O)[C@H]1O` [Compound 9, [(2R,3S,4R,5R)-5-(4-aminopyrrolo[2,1-f][1,2,4]triazin-7-yl)-5-cyano-3,4-dihydroxy-tetrahydrofuran-2-yl]methyl azocane-1-carboxylate], the “STA Human Plasma 37” value in data set [6] turned out to be 1584. In addition, the “DM Caco2 A to B” value in data set [7] is 0.47. Moreover, the “DM Caco2 B to A” value in data set [7] amounted to 6.67. Further, the half-life at 2 μM in “in vitro [1]” worked out at 400 min; in “in vitro [2]” it was 526 min. Besides, the half-maximal effective concentration (EC50) in data set [3] was determined as 10300 nM. The negative-log EC50 (pEC50) in data set [4] is < 4.30. In the data set “in vitro [5]”, the cytotoxic concentration (CC50) was > 50 µM.
With `CC(C)OC(=O)[C@@H](NC(=O)OC[C@H]1O[C@@](C#N)(c2ccc3c(N)ncnn23)[C@H](O)[C@@H]1O)C(C)C` [Compound 7, isopropyl-((((2R,3S,4R,5R)-5-(4-aminopyrrolo[2,1-f][1,2,4]triazin-7-yl)-5-cyano-3,4-dihydroxytetrahydrofuran-2-yl)methoxy)carbonyl)-L-valinate], the “STA Human Plasma 37” value in data set [6] is on record as 1303.4. In data set [7], the “DM Caco2 A to B” value is reported as 0.115. Further, the “DM Caco2 B to A” value in data set [7] is 6.245. Further, the half-life at 2 μM was ≥ 792 min in “in vitro [1]” and ≥ 592 min in “in vitro [2]”. Also, the 50% effective concentration (EC50) in data set [3] was > 50000 nM. In addition, in data set [4], the pEC50 is < 4.30. The CC50 in “in vitro [5]” is > 50 µM.
Turning to `CCOC(=O)c1cccn1C(=O)OC[C@H]1O[C@@](C#N)(c2ccc3c(N)ncnn23)[C@H](O)[C@@H]1O` [Compound 10, O1-[[(2R,3S,4R,5R)-5-(4-aminopyrrolo[2,1-f][1,2,4]triazin-7-yl)-5-cyano-3,4-dihydroxy-tetrahydrofuran-2-yl]methyl]O2-ethyl pyrrole-1,2-dicarboxylate], in data set [6], the “STA Human Plasma 37” value came to 68.966. Also, in data set [7], the “DM Caco2 A to B” value was found to be 0.22 and the “DM Caco2 B to A” value came out at 5.54. The same compound displayed a half-life at 2 μM in the data set “in vitro [1]” of 1.71 min. The compound further gave a half-life at 2 μM in “in vitro [2]” of 4.6 min. In data set [3], the EC50 was determined as 1520 nM. In addition, the negative-log EC50 (pEC50) in data set [4] was 5.29. Also, the CC50 in the data set “in vitro [5]” is > 50 µM.
`CC(=O)O[C@H]1[C@@H](OC(C)=O)[C@](C#N)(c2ccc3c(N)ncnn23)O[C@@H]1COC(=O)SC(C)(C)C` [Compound 24, [(2R,3R,4R,5R)-4-acetoxy-5-(4-aminopyrrolo[2,1-f][1,2,4]triazin-7-yl)-2-(tert-butylsulfanylcarbonyloxymethyl)-5-cyano-tetrahydrofuran-3-yl]acetate]: the half-life at 2 μM was 0.921 min in “in vitro [1]” and ≤ 2 min in the data set “in vitro [2]”. In addition, the EC50 in data set [3] was found to be 19400 nM. Besides, in data set [4], the pEC50 is < 4.30. Further, the CC50 in the data set “in vitro [5]” is > 50 µM.

The term half-life denotes how long it takes for the measured level to halve. A high value points to slow loss. The EC50 is the concentration giving half of the maximal effect. A word on the pEC50: it is the EC50 on a negative log10 scale, so that one unit is a factor of ten. For orientation: CC50 means the concentration giving 50% cytotoxicity. A lower CC50 goes with harm at low concentration.
